One assay deals with Cbl-b (Homo sapiens, UniProt Q13191). The assay is described as follows: Cbl-b inhibition assay (Cbl-b activity assay, FRET, Biological Example 1; 100 mM NaCl, 60 nM Src kinase). In kind it is biochemical. The conditions noted are these: upper bound stated in text lists; read-out: IC50 values in the Cbl-b inhibition assay of Biological Example 1. Put shortly:
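N-terminally biotinylated Avi-tagged Cbl-b was mixed with Src kinase, UbcH5B covalently conjugated to Bodipy-fluorescein ubiquitin, and streptavidin-terbium. Src phosphorylation lets Cbl-b bind UbcH5B-Ub, giving terbium-fluorescein FRET; inhibition is read as loss of FRET signal.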

In assay [1] the test system is T-cell. The assay is described as follows: IL-2 secretion from T-cells stimulated with anti-CD3 antibody alone (Biological Example 2). In kind it is cell-based, human. The conditions noted are these: T-cell, read-out: IL-2 secretion Anti-CD3 stimulation; for fold induction at 1 µM: 1 μM Cbl-b inhibitor; for fold induction at 8 µM: 8 μM Cbl-b inhibitor.
The subject of assay [2] is T-cell. The assay is described as follows: CD25 cell surface staining on T-cells stimulated with anti-CD3 antibody alone (Biological Example 2). The class given is cell-based, human. Conditions: T-cell, read-out: CD25 staining Anti-CD3 stimulation; for fold induction at 1 µM: 1 μM Cbl-b inhibitor; for fold induction at 8 µM: 8 μM Cbl-b inhibitor.
The next assay concerns the target Cbl-b (residues 36-427) (Homo sapiens, UniProt Q13191). The assay is described as follows: Cbl-b binding assay (SPR, Biacore T200). Conditions: 20° C., 1:1 binding model. A digest of the protocol: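 NeutrAvidin capture chip, 20° C; 50 s injections at 50 μl/min, 90-180 s dissociation; 0.3 M NaCl regeneration. Asterisked column: 50 mM NaCl buffer and 30 nM Src kinase in place of 100 mM NaCl and 60 nM Src kinase. 1:1 fit.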
In general terms: In SPR one partner is held on a chip, and binding of the other changes the refractive index at the surface.

Setting [3] is: fold change over baseline, primary human total T-cells.
Where [4] appears, read: Homo sapiens, fold change over baseline (anti-CD3/anti-CD28 stimulated T-cells without inhibitor).

Structures are written as SMILES. pIC50, pKd: −log10 of the molar value. A value given as a limit tells only on which side of the number the result lay.

Among the data in patent US20220324835A1 (Nurix Therapeutics, Inc., priority 2018, published 2022) are IC50, fold induction and Kd values, retold here.

Sequence of Cbl-b (Q13191 36-427): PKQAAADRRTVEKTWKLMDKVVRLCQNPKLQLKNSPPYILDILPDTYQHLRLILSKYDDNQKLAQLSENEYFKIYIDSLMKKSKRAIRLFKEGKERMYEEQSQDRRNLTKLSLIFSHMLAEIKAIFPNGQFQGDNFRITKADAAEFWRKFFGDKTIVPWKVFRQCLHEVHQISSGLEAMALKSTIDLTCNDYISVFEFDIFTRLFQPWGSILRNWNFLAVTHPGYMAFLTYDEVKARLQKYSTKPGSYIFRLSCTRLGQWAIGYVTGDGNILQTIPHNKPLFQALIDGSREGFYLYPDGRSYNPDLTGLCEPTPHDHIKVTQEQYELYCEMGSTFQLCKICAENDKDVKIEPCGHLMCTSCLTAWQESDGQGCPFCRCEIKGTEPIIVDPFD
Sequence of Cbl-b (residues 36-427) (Q13191 36-427): as above

On to `C[C@H](Cc1nncn1C)c1cc(F)cc(N2Cc3c(cccc3C(F)(F)F)C2=O)c1` [Compound 281a, 2-[3-Fluoro-5-[(1R)-1-methyl-2-(4-methyl-1,2,4-triazol-3-yl)ethyl]phenyl]-4-(trifluoromethyl)isoindolin-1-one], for which, on Cbl-b, the pIC50 is no less than 6.30. In addition, in the assay with T-cell [1] (setting [3]), the fold induction at 1 µM is less than 0.05 and the fold induction at 8 µM lay in the range of 0.051 to 0.1. In the assay with T-cell [2] (setting [3]), the fold induction at 1 µM fell in the range of 0.801 to 1 and the fold induction at 8 µM was greater than 1. Besides, the pKd on Cbl-b (residues 36-427) is 6.52 to 7.00.
Consider `Cn1cnnc1[C@@H]1C[C@@H]1c1cccc(N2Cc3c(cccc3C(F)(F)F)C2=O)c1` [Compound 282, 2-(3-((1S,2R)-2-(4-methyl-4H-1,2,4-triazol-3-yl)cyclopropyl)phenyl)-4-(trifluoromethyl)isoindolin-1-one], for which the pIC50 at Cbl-b is no less than 6.30. Moreover, in the assay with T-cell [1] (setting [3]), the fold induction at 1 µM is less than 0.05 and the fold induction at 8 µM was less than 0.05. For the same compound, in the assay on T-cell [2] (setting [3]), the fold induction at 1 µM was in the range of 0.601 to 0.8 and the fold induction at 8 µM was greater than 1. Also, the pKd on Cbl-b (residues 36-427) is 6.00 to 6.52.
With `Cn1cnnc1[C@@H]1CC[C@@H]1c1cccc(N2Cc3c(cccc3C(F)(F)F)C2=O)c1` [Compound 283b, 2-(3-((1S,2R)-2-(4-methyl-4H-1,2,4-triazol-3-yl)cyclobutyl)phenyl)-4-(trifluoromethyl)isoindolin-1-one], the pIC50 on Cbl-b is no less than 6.30. In the assay with T-cell [1] (setting [3]), the fold induction at 1 µM is 0.101 to 0.15 and the fold induction at 8 µM was greater than 0.201. For the same compound, in the assay with T-cell [2] (setting [3]), the fold induction at 1 µM was in the range of 0.601 to 0.8 and the fold induction at 8 µM was in the range of 0.801 to 1. At Cbl-b (residues 36-427), this compound had a pKd of 6.00 to 6.52.
Turning to `Cc1ccc(C(=O)Nc2cccc(C(C)C(F)(F)c3nncn3C)c2)nc1C1CC1` (stereo not shown) [Compound 286, 6-cyclopropyl-N-(3-(1,1-difluoro-1-(4-methyl-4H-1,2,4-triazol-3-yl)propan-2-yl)phenyl)-5-methylpicolinamide], on Cbl-b, the pIC50 is no less than 6.30. The fold induction at 1 µM in the assay on T-cell [1] (setting [3]) fell in the range of 0.051 to 0.1; in the assay on T-cell [2] (setting [3]), 0.801 to 1. Besides, the fold induction at 8 µM was 0.101 to 0.15 in the assay with T-cell [1] (setting [3]) and greater than 1 in the assay on T-cell [2] (setting [3]). The pKd at Cbl-b (residues 36-427) is 6.00 to 6.52.
On to `Cn1cnnc1C[C@](C)(F)c1cccc(N2Cc3c(cccc3C(F)(F)F)C2=O)c1` [Compound 298b, (S)-2-(3-(2-fluoro-1-(4-methyl-4H-1,2,4-triazol-3-yl)propan-2-yl)phenyl)-4-(trifluoromethyl)isoindolin-1-one], for which the pIC50 on Cbl-b is no less than 6.30. Further, in the assay on T-cell [1] (setting [3]), the fold induction at 1 µM lay in the range of 0.051 to 0.1 and the fold induction at 8 µM was in the range of 0.101 to 0.15. In the assay on T-cell [2] (setting [3]), the fold induction at 1 µM was in the range of 0.601 to 0.8 and the fold induction at 8 µM was in the range of 0.801 to 1. Moreover, the pKd on Cbl-b (residues 36-427) was 6.52 to 7.00.
As for `C[C@H](Cc1nncn1C)c1ccnc(NC(=O)c2cccc(C(F)(F)F)n2)c1` [Compound 302, (R)-N-(4-(1-(4-methyl-4H-1,2,4-triazol-3-yl)propan-2-yl)pyridin-2-yl)-6-(trifluoromethyl)picolinamide], the pIC50 on Cbl-b was no less than 6.00. In the assay on T-cell [1] (setting [3]), the fold induction at 1 µM was less than 0.05 and the fold induction at 8 µM is 0.051 to 0.1. Moreover, in the assay with T-cell [2] (setting [3]), the fold induction at 1 µM is less than 0.6 and the fold induction at 8 µM is 0.801 to 1. On Cbl-b (residues 36-427), this compound showed a pKd of 5.52 to 6.00.
For `C[C@H](Cc1nncn1C)c1ccnc(N2Cc3c(cccc3C(F)(F)F)C2=O)c1` [Compound 304b, (R)-2-(4-(1-(4-methyl-4H-1,2,4-triazol-3-yl)propan-2-yl)pyridin-2-yl)-4-(trifluoromethyl)isoindolin-1-one], the pIC50 at Cbl-b is no less than 6.30. In the assay on T-cell [1] (setting [3]), the fold induction at 1 µM is less than 0.05 and the fold induction at 8 µM is less than 0.05. Also, in the assay with T-cell [2] (setting [3]), the fold induction at 1 µM is less than 0.6 and the fold induction at 8 µM is less than 0.6. The compound also had a pKd at Cbl-b (residues 36-427) of 5.52 to 6.00.
Regarding `C[C@H](Cc1nncn1C)c1cccc(NC(=O)c2nc(C(F)(F)F)c[nH]2)c1` [Compound 326, (R)-N-(3-(1-(4-methyl-4H-1,2,4-triazol-3-yl)propan-2-yl)phenyl)-4-(trifluoromethyl)-1H-imidazole-2-carboxamide], at Cbl-b, the pIC50 is no less than 6.52. In addition, in the assay with T-cell [1] (setting [3]), the fold induction at 1 µM fell in the range of 0.051 to 0.1 and the fold induction at 8 µM was greater than 0.201. Moreover, in the assay on T-cell [2] (setting [3]), the fold induction at 1 µM is 0.801 to 1 and the fold induction at 8 µM is greater than 1. This compound gave a negative-log Kd (pKd) at Cbl-b (residues 36-427) of 6.52 to 7.00.
`Cn1cnnc1[C@@H]1C[C@@H]1c1cccc(NC(=O)c2nc3c(C(F)(F)F)cccc3[nH]2)c1` [Compound 332, N-(3-((1S,2R)-2-(4-methyl-4H-1,2,4-triazol-3-yl)cyclopropyl)phenyl)-4-(trifluoromethyl)-1H-benzo[d]imidazole-2-carboxamide]: the pIC50 on Cbl-b was no less than 6.52. Also, in the assay on T-cell [1] (setting [3]), the fold induction at 1 µM lay within 0.101 to 0.15 and the fold induction at 8 µM was greater than 0.201. Further, in the assay with T-cell [2] (setting [3]), the fold induction at 1 µM was 0.601 to 0.8 and the fold induction at 8 µM was 0.801 to 1. Also, the pKd on Cbl-b (residues 36-427) is 6.00 to 6.52.
For the compound `Cc1cc(C(=O)Nc2cccc([C@@](C)(F)C(F)(F)c3nncn3C)c2)nc(C2CC2)n1` [Compound 344, (R)-2-Cyclopropyl-6-methyl-N-(3-(1,1,2-trifluoro-1-(4-methyl-4H-1,2,4-triazol-3-yl)propan-2-yl)phenyl)pyrimidine-4-carboxamide], the pIC50 on Cbl-b is no less than 6.52. Also, in the assay with T-cell [1] (setting [3]), the fold induction at 1 µM fell in the range of 0.101 to 0.15 and the fold induction at 8 µM is greater than 0.201. Besides, in the assay on T-cell [2] (setting [3]), the fold induction at 1 µM lay within 0.801 to 1 and the fold induction at 8 µM is greater than 1. For the same compound, the pKd at Cbl-b (residues 36-427) is greater than 7.00.
Consider `C[C@H](Cc1nncn1C)c1cc(NCCO)nc(N2Cc3c(cccc3C(F)(F)F)C2=O)c1` [Compound 357, (R)-2-(6-(2-hydroxyethylamino)-4-(1-(4-methyl-4H-1,2,4-triazol-3-yl)propan-2-yl)pyridin-2-yl)-4-(trifluoromethyl)isoindolin-1-one], for which, at Cbl-b, the pIC50 is no less than 6.52. Further, in the assay with T-cell [1] (setting [3]), the fold induction at 1 µM was in the range of 0.051 to 0.1 and the fold induction at 8 µM lay in the range of 0.151 to 0.2. Moreover, in the assay on T-cell [2] (setting [3]), the fold induction at 1 µM lay within 0.601 to 0.8 and the fold induction at 8 µM is greater than 1. The pKd on Cbl-b (residues 36-427) was 6.52 to 7.00.
Take `C[C@H](Cc1nncn1C)c1cc(-c2cn[nH]c2)nc(N2Cc3c(cccc3C(F)(F)F)C2=O)c1` [Example 684, (R)-2-(4-(1-(4-methyl-4H-1,2,4-triazol-3-yl)propan-2-yl)-6-(1H-pyrazol-4-yl)pyridin-2-yl)-4-(trifluoromethyl)isoindolin-1-one]: the pIC50 at Cbl-b was no less than 6.00. The fold induction at 1 µM with T-cell [1] (setting [4]) is 0.051 to 0.1; in the assay with T-cell [2] (setting [4]), less than 0.6. Moreover, on Cbl-b (residues 36-427), the pKd is 5.52 to 6.00.

As a reminder, the pIC50 is −log10 of the IC50, conventionally taken in molar units. A word on the pKd: it is the negative decadic logarithm of the Kd, by convention in mol/L. A low value points to a high Kd.
